The experiment relates to hippocampal slice cultures. Nature of the experiment: Impedance measurement (TIECIR) of organotypic hippocampal slice cultures after induction of tau-hyperphosphorylation. Type of experiment: cell-based. The following applies: 1 μM, hippocampal slices of 8-9 day old rats, 7 days in culture, 100 Hz to 1 MHz, 10 mV, stable for 9 hours before application, remained small within the next seven hours. How it is done:
The impedance changes caused by tau-hyperphosphorylation (FIG. 11) of hippocampal slices that were prepared from 8-9 day old rats were measured using the device according to the present invention. Six to eight hippocampal slices of 400 μm thickness were places on a aluminiumoxyd membrane (0.02 μm pore size) of a 6-well recording chamber and cultured for 7 days in 50% minimum essential media, 25% Hank's media, and 25% horse serum supplemented with L-glutamine and antibiotics. Impedance recording was performed by using a Agilent 4294A impedance analyser (Agilent Technologies Deutschland GmbH, Germany) in combination with a multiplexer (NI-SCXI-1153, National Instruments, USA).
24 hours before impedance measurement was carried out, medium replaced by fresh culture medium. The impedance was recorded in a frequency range of 100 Hz to 1 MHz by applying a voltage of 10 mV across a large top electrode and 60 substrate integrated bottom electrodes of 30 μm in diameter.
For measuring hippocampal slice cultures, the TIECIR method was used. Organotypic slice cultures were transiently covered with medium during impedance measurement, which usually takes less than 30 seconds for a single bottom electrode. […]

For the compound `C=C1[C@@H](O)[C@@H]2O[C@]3(CC[C@H](/C=C/[C@@H](C)[C@@H]4CC(C)=C[C@@]5(O[C@H](C[C@@](C)(O)C(=O)O)CC[C@H]5O)O4)O3)CC[C@H]2O[C@@H]1[C@@H](O)C[C@H](C)[C@H]1O[C@@]2(CCCCO2)CC[C@H]1C` [ocadaic acid], the “normalized impedance (normalized against non-covered membrane)” value is recorded as 10%.

These data come from patent US10670576B2, “Device and method for measuring impedance in organotypic tissues” (Universität Leipzig, priority 2008, dated 2020).
